How the values were obtained:
[1] = system: azole-resistant Candida albicans R357 strain; test: microbe, parasite or virus in culture; type: cell-based; settings: for MIC: Candida albicans
[2] = system: C. tropicalis CTO2, MMX 7255, MMX 7525; test: Time-kill assay in vagina-simulative medium pH 4.0 (Table 18); type: cell-based, Candida tropicalis; settings: C. tropicalis CT02 (FLU S), VSM pH 4.0
[3] = system: C. parapsilosis CP02, CP01, MMX 7370; test: Time-kill assay in vagina-simulative medium pH 4.0 (Table 19); type: cell-based, Candida parapsilosis; settings: C. parapsilosis CP02 (FLU S), VSM pH 4.0
[4] = system: C. glabrata CG01, ATCC 200918, MMX 7070; test: Time-kill assay in vagina-simulative medium pH 4.0 (Table 17); type: cell-based, Candida glabrata; settings: C. glabrata CG01 (FLU S), VSM pH 4.0
[5] = system: C. albicans ATCC 44858, DPL001, R357; test: Time-kill assay in vagina-simulative medium pH 4.0 (Table 16); type: cell-based, Candida albicans; settings: ATCC 44858 (FLU S)

`CC[C@@H]([C@H](C)O)n1ncn(-c2ccc(N3CCN(c4ccc(OC[C@@H]5CO[C@@](Cn6cncn6)(c6ccc(F)cc6F)C5)cc4)CC3)cc2)c1=O` [Posaconazole] was tested, and the MIC [1] was greater than 64 µg/mL.

`CC(C)N1CCN(c2ccc(OCC3COC(Cn4cncn4)(c4ccc(Cl)cc4Cl)O3)cc2)CC1` (stereo not drawn) [TCZ, terconazole] was tested, and the “log-fold changes in CFU” value ([2]; 24 h, 2 μg/mL) was 2.39 log-fold, the “log-fold changes in CFU” value ([2]; 24 h, 8 μg/mL) was 2.33 log-fold and the “log-fold changes in CFU” value ([2]; 24 h, 32 μg/mL) was 0.00 log-fold. The “log-fold changes in CFU” value ([2]; 24 h, 128 μg/mL) was −1.00 log-fold, the “log-fold changes in CFU” value ([2]; 48 h, 2 μg/mL) was 2.57 log-fold and the “log-fold changes in CFU” value ([2]; 48 h, 8 μg/mL) was 2.33 log-fold. For the same compound, the “log-fold changes in CFU” value ([2]; 48 h, 32 μg/mL) was 0.23 log-fold, the “log-fold changes in CFU” value ([2]; 48 h, 128 μg/mL) was −1.00 log-fold and the “log-fold changes in CFU” value ([2]; 72 h, 2 μg/mL) was 2.65 log-fold. For the same compound, the “log-fold changes in CFU” value ([2]; 72 h, 8 μg/mL) was 2.52 log-fold, the “log-fold changes in CFU” value ([2]; 72 h, 32 μg/mL) was 0.27 log-fold and the “log-fold changes in CFU” value ([2]; 72 h, 128 μg/mL) was −0.94 log-fold. For the same compound, the “log-fold changes in CFU” value ([3]; 24 h, 2 μg/mL) was 0.21 log-fold, the “log-fold changes in CFU” value ([3]; 24 h, 8 μg/mL) was −0.79 log-fold and the “log-fold changes in CFU” value ([3]; 24 h, 32 μg/mL) was −0.89 log-fold. For the same compound, the “log-fold changes in CFU” value ([3]; 24 h, 128 μg/mL) was −0.95 log-fold, the “log-fold changes in CFU” value ([3]; 48 h, 2 μg/mL) was 1.89 log-fold and the “log-fold changes in CFU” value ([3]; 48 h, 8 μg/mL) was −0.64 log-fold. For the same compound, the “log-fold changes in CFU” value ([3]; 48 h, 32 μg/mL) was −2.48 log-fold, the “log-fold changes in CFU” value ([3]; 48 h, 128 μg/mL) was −2.65 log-fold and the “log-fold changes in CFU” value ([3]; 72 h, 2 μg/mL) was 2.00 log-fold. The “log-fold changes in CFU” value ([3]; 72 h, 8 μg/mL) was −0.63 log-fold, the “log-fold changes in CFU” value ([3]; 72 h, 32 μg/mL) was −2.78 log-fold and the “log-fold changes in CFU” value ([3]; 72 h, 128 μg/mL) was −2.95 log-fold. For the same compound, the “log-fold changes in CFU” value ([4]; 24 h, 2 μg/mL) was 2.43 log-fold, the “log-fold changes in CFU” value ([4]; 24 h, 8 μg/mL) was 2.43 log-fold and the “log-fold changes in CFU” value ([4]; 24 h, 32 μg/mL) was 2.40 log-fold. The “log-fold changes in CFU” value ([4]; 24 h, 128 μg/mL) was 1.79 log-fold, the “log-fold changes in CFU” value ([4]; 48 h, 2 μg/mL) was 2.42 log-fold and the “log-fold changes in CFU” value ([4]; 48 h, 8 μg/mL) was 2.45 log-fold. The “log-fold changes in CFU” value ([4]; 48 h, 32 μg/mL) was 2.36 log-fold, the “log-fold changes in CFU” value ([4]; 48 h, 128 μg/mL) was 2.35 log-fold and the “log-fold changes in CFU” value ([4]; 72 h, 2 μg/mL) was 2.47 log-fold. The “log-fold changes in CFU” value ([4]; 72 h, 8 μg/mL) was 2.19 log-fold, the “log-fold changes in CFU” value ([4]; 72 h, 32 μg/mL) was 2.21 log-fold and the “log-fold changes in CFU” value ([4]; 72 h, 128 μg/mL) was 2.30 log-fold. The “log-fold change in CFU” value ([5]; 24 h, 2 μg/mL) was 0.33 log-fold, the “log-fold change in CFU” value ([5]; 24 h, 8 μg/mL) was 0.33 log-fold and the “log-fold change in CFU” value ([5]; 24 h, 32 μg/mL) was −1.16 log-fold. For the same compound, the “log-fold change in CFU” value ([5]; 24 h, 128 μg/mL) was −1.41 log-fold, the “log-fold change in CFU” value ([5]; 48 h, 2 μg/mL) was 2.00 log-fold and the “log-fold change in CFU” value ([5]; 48 h, 8 μg/mL) was 1.38 log-fold. For the same compound, the “log-fold change in CFU” value ([5]; 48 h, 32 μg/mL) was −1.07 log-fold, the “log-fold change in CFU” value ([5]; 48 h, 128 μg/mL) was −1.64 log-fold and the “log-fold change in CFU” value ([5]; 72 h, 2 μg/mL) was 2.52 log-fold. The “log-fold change in CFU” value ([5]; 72 h, 8 μg/mL) was 2.27 log-fold, the “log-fold change in CFU” value ([5]; 72 h, 32 μg/mL) was −0.41 log-fold and the “log-fold change in CFU” value ([5]; 72 h, 128 μg/mL) was −0.81 log-fold.

`C[C@@H](c1ncncc1F)[C@](O)(Cn1cncn1)c1ccc(F)cc1F` [Voriconazole] was tested, and the “Susceptibility (CLSI)” value ([1]; C. albicans R357) was “R” and the MIC [1] was greater than 64 µg/mL.
